Laboratory results from ChEMBL document CHEMBL3286303, “Synthesis and in vitro antiproliferative evaluation of novel N-alkylated 6-isobutyl- and propyl pyrimidine derivatives” (Bioorg Med Chem Lett, 2014).

Assays:
[1] = tested on: SW-620; experiment: Antiproliferative activity against human SW620 cells after 72 hrs by MTT assay; format: functional, cell-based; details: SW-620, 72 h
[2] = tested on: HepG2; experiment: Antiproliferative activity against human HepG2 cells after 72 hrs by MTT assay; format: functional, cell-based; details: HepG2, 72 h
[3] = tested on: HeLa; experiment: Antiproliferative activity against human HeLa cells after 72 hrs by MTT assay; format: functional, cell-based
[4] = tested on: MCF7; experiment: Antiproliferative activity against human MCF7 cells after 72 hrs by MTT assay; format: functional, cell-based; details: MCF7, 72 h
[5] = tested on: MCR; experiment: Antiproliferative activity against human MCR cells after 72 hrs by MTT assay
[6] = Antiproliferative activity against human MIAPaCa2 cells after 72 hrs by MTT assay; format: functional, cell-based; details: MIA PaCa-2, 72 h
[7] = tested on: WI-38; experiment: Antiproliferative activity against human WI38 cells after 72 hrs by MTT assay; format: cell-based; details: Homo sapiens, WI-38, 72 h
[8] = tested on: MCR; experiment: Antiproliferative activity against human MCR cells after 72 hrs by MTT assay; format: cell-based; details: MCR
[9] = tested on: BJ; experiment: Antiproliferative activity against human BJ cells after 72 hrs by PrestoBlue colorimetric assay; format: cell-based
[10] = tested on: K562; experiment: Antiproliferative activity against apoptosis-resistant, Philadelphia chromosome-positive human K562 cells after 72 hrs by PrestoBlue colorimetric assay; format: functional, cell-based; details: K562, 72 h

| SMILES | IC50 [1] [µM] | IC50 [2] [µM] | IC50 [3] [µM] | IC50 [4] [µM] | IC50 [5] [µM] | IC50 [6] [µM] | IC50 [7] [µM] | IC50 [8] [µM] | IC50 [9] [µM] | IC50 [10] [µM] |
| --- | --- | --- | --- | --- | --- | --- | --- | --- | --- | --- |
| C[Si](C)(C)CCOCn1c(CC(O)(CO)CO)cc(=O)[nH]c1=O | > 100 | > 100 | > 100 | > 100 | > 100 | > 100 | – | – | – | – |
| COCn1c(CC(O)(COCc2ccccc2)COCc2ccccc2)cc(=O)[nH]c1=O | > 100 | > 100 | > 100 | > 100 | > 100 | > 100 | – | – | – | – |
| COCn1c(CC(COCc2ccccc2)COCc2ccccc2)cc(=O)[nH]c1=O | > 100 | > 100 | > 100 | > 100 | > 100 | > 100 | – | – | – | – |
| C[Si](C)(C)CCOCn1c(CC(O)(COCc2ccccc2)COCc2ccccc2)cc(=O)[nH]c1=O | > 100 | > 100 | > 100 | > 100 | > 100 | > 100 | – | – | – | – |
| Cc1c(CC(O)COCc2ccccc2)[nH]c(=O)[nH]c1=O (stereo unspecified) | > 100 | > 100 | > 100 | > 100 | > 100 | > 100 | – | – | – | – |
| COCn1c(CC(O)(CO)CO)cc(=O)[nH]c1=O | > 100 | > 100 | > 100 | > 100 | > 100 | > 100 | – | – | – | – |
| C[Si](C)(C)CCOCn1c(CC(O)COCc2ccccc2)cc(=O)[nH]c1=O (stereo unspecified) | > 100 | > 100 | > 100 | > 100 | > 100 | > 100 | – | – | – | – |
| Cc1c(CC(O)COCc2ccccc2)n(COCC[Si](C)(C)C)c(=O)[nH]c1=O (stereo unspecified) | > 100 | > 100 | > 100 | > 100 | > 100 | > 100 | – | – | – | – |
| COc1nc(CC(O)(COCc2ccccc2)COCc2ccccc2)c(C)c(OC)n1 | – | – | – | – | – | 6.1 | – | – | – | – |
| COc1cc(CC(COCc2ccccc2)COCc2ccccc2)nc(OC)n1 | > 100 | 0.3 | 3.5 | 0.3 | 18.5 | – | – | – | – | – |
| O=c1cc(CC(O)(COCc2ccccc2)COCc2ccccc2)[nH]c(=O)[nH]1 | > 100 | > 100 | > 100 | > 100 | > 100 | > 100 | – | – | – | – |
| COCn1c(=O)[nH]c(CC(COCc2ccccc2)COCc2ccccc2)c(C)c1=O | 25.6 | – | 17 | 21.6 | – | 27.3 | 19.4 | – | – | – |
| Cc1c(CC(O)CO)n(COCC[Si](C)(C)C)c(=O)[nH]c1=O (stereo unspecified) | > 100 | > 100 | > 100 | > 100 | > 100 | > 100 | – | – | – | – |
| COCn1c(CC(COCc2ccccc2)COCc2ccccc2)c(C)c(=O)[nH]c1=O | 72.1 | – | 29.7 | 72.6 | – | 55.9 | 30.8 | – | – | – |
| COc1nc(CC(O)COCc2ccccc2)c(C)c(OC)n1 (stereo unspecified) | > 100 | > 100 | > 100 | > 100 | – | > 100 | – | > 100 | – | – |
| O=c1cc(CC(O)COCc2ccccc2)[nH]c(=O)[nH]1 (stereo unspecified) | > 100 | > 100 | > 100 | > 100 | > 100 | > 100 | – | – | – | – |
| COCn1c(CC(O)CO)c(C)c(=O)[nH]c1=O (stereo unspecified) | > 100 | > 100 | > 100 | > 100 | > 100 | > 100 | – | – | – | – |
| COc1cc(CC(O)(COCc2ccccc2)COCc2ccccc2)nc(OC)n1 | > 100 | > 100 | > 100 | > 100 | > 100 | > 100 | – | – | – | – |
| O=c1cc(CC(COCc2ccccc2)COCc2ccccc2)[nH]c(=O)[nH]1 | > 100 | > 100 | > 100 | > 100 | > 100 | > 100 | – | – | – | – |
| C[Si](C)(C)CCOCn1c(CC(O)CO)cc(=O)[nH]c1=O (stereo unspecified) | > 100 | > 100 | > 100 | > 100 | > 100 | > 100 | – | – | – | – |
| Cc1cn(-c2cc(NC(=O)c3ccc(C)c(Nc4nccc(-c5cccnc5)n4)c3)cc(C(F)(F)F)c2)cn1 [NILOTINIB] | – | – | – | – | – | – | – | – | 12.8 | 2.4 |
| COc1cc(CC(O)COCc2ccccc2)nc(OC)n1 (stereo unspecified) | > 100 | > 100 | > 100 | > 100 | > 100 | > 100 | – | – | – | – |
| COCn1c(CC(O)COCc2ccccc2)c(C)c(=O)[nH]c1=O (stereo unspecified) | > 100 | > 100 | > 100 | > 100 | > 100 | > 100 | – | – | – | – |
